Laboratory results: DBAASP
In brackets after ≈: the same amount, converted by molar mass. Several values for one entry are separate records, joined by “and”; a condition that tells them apart may be missing. Identical values can stand only once.

Key:
Assay in all cases: ≥ marks a high value that may be exact or a test limit, other limits are often not marked, values filed in µg/mL are converted to µM
[1] = system: Pseudomonas aeruginosa
[2] = system: Escherichia coli HB101
[3] = system: Staphylococcus aureus ATCC 6538P
[4] = system: Bacillus subtilis ATCC 9466
[5] = system: Stenotrophomonas maltophilia FC
[6] = system: Burkholderia cepacia 6/06
[7] = system: Pseudomonas aeruginosa ATCC 15442
[8] = system: Candida albicans
[9] = system: Staphylococcus aureus
[10] = system: Staphylococcus aureus Cowan 1
[11] = system: Bacillus subtilis CMCC 63501
[12] = system: Staphylococcus epidermidis ATCC 12228
[13] = system: Salmonella enterica subsp. enterica serovar Typhimurium ATCC 14028
[14] = system: Escherichia coli UB1005
[15] = system: Enterococcus faecalis ATCC 29212
[16] = system: Staphylococcus aureus ATCC 29213
[17] = system: Salmonella typhimurium ATCC 7731
[18] = system: Pseudomonas aeruginosa ATCC 27853
[19] = system: Pseudomonas aeruginosa PAO1
[20] = system: Escherichia coli ATCC 25922
[21] = system: Escherichia coli DH5alpha
[22] = system: Escherichia coli
[23] = system: Pseudomonas aeruginosa H188
[24] = system: Staphylococcus aureus ATCC 6538
[25] = system: Listeria monocytogenes ATCC 19115
[26] = system: Vibrio parahaemolyticus ATCC 33847
[27] = system: Vibrio anguillarum ATCC 19264
[28] = system: Aeromonas hydrophila ATCC 7966
[29] = system: Vibrio alginolyticus ATCC 17749
[30] = system: Pseudomonas fluorescens CGMCC 1.0032
[31] = system: Vibrio alginolyticus CGMCC 1.1833
[32] = system: Vibrio fluvialis CGMCC 1.1609
[33] = system: Edwardsiella tarda
[34] = system: Corynebacterium glutamicum CGMCC 1.1886
[35] = system: Bacillus subtilis CGMCC 1.108
[36] = system: Staphylococcus epidermidis CGMCC 1.2429
[37] = system: Candida albicans CGMCC 2.2411
[38] = system: Aeromonas hydrophila CGMCC 1.0927
[39] = system: Micrococcus luteus CGMCC 1.634
[40] = system: Aeromonas sobria
[41] = system: Staphylococcus aureus CGMCC 1.363
[42] = system: Escherichia coli MC1061
[43] = system: Vibrio harveyi CGMCC 1.1593
[44] = system: Vibrio parahaemolyticus CGMCC 1.1615
[45] = system: Shigella flexneri CGMCC 1.1868
[46] = system: Micrococcus luteus CGMCC 1.0634
[47] = system: Mycobacterium tuberculosis H37Rv
[48] = system: Streptococcus pneumoniae ATCC 49619

Compound CSCC[C@H](NC(=O)[C@@H](NC(=O)CNC(=O)[C@H](CC(C)C)NC(=O)[C@H](CCCCN)NC(=O)[C@H](CCCCN)NC(=O)[C@H](CC(C)C)NC(=O)[C@H](CCSC)NC(=O)[C@@H](NC(=O)[C@H](CCCCN)NC(=O)[C@H](Cc1cnc[nH]1)NC(=O)[C@H](CC(C)C)NC(=O)[C@H](C)N)[C@@H](C)O)[C@@H](C)O)C(=O)N[C@@H](C)C(=O)N[C@@H](CC(C)C)C(N)=O [ALHKTMLKKLGTMAL] has an MIC [1] greater than 45 µM, an MIC [2] of no less than 44.9 µM and an MIC [3] of no less than 45 µM. For the same compound, the MIC [4] was no less than 45 µM, the MIC [5] was no less than 45 µM and the MIC [6] was no less than 45 µM. It also gave an MIC [7] of no less than 45 µM, an MIC [8] greater than 45 µM and an MIC [9] greater than 45 µM. It also gave an MIC [10] of no less than 44.9 µM.
With CC[C@H](C)[C@H](NC(=O)[C@H](CCCCN)NC(=O)[C@H](CCCCN)NC(=O)[C@H](Cc1ccccc1)NC(=O)[C@H](CC(C)C)NC(=O)[C@H](CCCCN)NC(=O)[C@H](Cc1c[nH]c2ccccc12)NC(=O)[C@H](CCCCN)NC(=O)[C@@H](NC(=O)[C@H](CCCN=C(N)N)NC(=O)[C@@H](NC(=O)[C@H](CCCN=C(N)N)NC(=O)[C@@H](NC(=O)[C@H](CCCN=C(N)N)NC(=O)[C@@H](N)Cc1ccccc1)[C@@H](C)CC)C(C)C)C(C)C)C(N)=O [FRIRVRVKWKLFKKI] the MIC [11] was 1 µM (≈ 2.02 µg/mL), the MIC [12] was 0.5 µM (≈ 1.01 µg/mL) and the MIC [13] was 4 µM (≈ 8.07 µg/mL). For the same compound, the MIC [14] was 2 µM (≈ 4.03 µg/mL), the MIC [15] was 1 µM (≈ 2.02 µg/mL) and the MIC [16] was 2 µM and 4 µM. For the same compound, the MIC [17] was 4 µM (≈ 8.07 µg/mL), the MIC [18] was 2 µM (≈ 4.03 µg/mL) and the MIC [19] was 2 µM (≈ 4.03 µg/mL). The MIC [20] was 2 µM and 4 µM.
CC[C@H](C)[C@H](NC(=O)[C@H](C)NC(=O)[C@H](CCCCN)NC(=O)[C@H](CC(C)C)NC(=O)[C@H](C)NC(=O)[C@@H](NC(=O)[C@H](Cc1cnc[nH]1)NC(=O)[C@H](CC(C)C)NC(=O)[C@H](C)NC(=O)[C@@H](NC(=O)[C@H](CCCCN)NC(=O)[C@H](CCCCN)NC(=O)[C@H](C)NC(=O)[C@H](CO)NC(=O)[C@H](CCCCN)NC(=O)[C@H](Cc1ccccc1)NC(=O)[C@@H](NC(=O)[C@H](CCCCN)NC(=O)[C@H](CC(C)C)NC(=O)[C@H](Cc1ccccc1)NC(=O)[C@H](CO)NC(=O)[C@H](CCCCN)NC(=O)[C@H](Cc1c[nH]c2ccccc12)NC(=O)[C@H](CCCCN)NC(C)=O)[C@@H](C)O)[C@@H](C)O)[C@@H](C)O)C(=O)N[C@@H](CO)C(=O)N[C@@H](CO)C(N)=O [KWKSFLKTFKSAKKTALHTALKAISS] was tested, and the MIC [21] was 1.37 µM (≈ 4.06 µg/mL), the MIC [22] was 0.342 µM (≈ 1.01 µg/mL) and the MIC [23] was 1.37 µM (≈ 4.06 µg/mL). The MIC [18] was 1.37 µM (≈ 4.06 µg/mL) and the MIC [20] was 0.685 µM (≈ 2.03 µg/mL).
CC(C)C[C@H](N)C(=O)NCC(=O)NCC(=O)N[C@@H](CC(=O)O)C(=O)N[C@@H](CC(N)=O)C(=O)N[C@@H](Cc1ccc(O)cc1)C(=O)NCC(=O)N[C@H](C(=O)N[C@@H](Cc1ccccc1)C(=O)N[C@@H](CO)C(=O)NCC(=O)N[C@@H](CO)C(=O)N[C@@H](CC(N)=O)C(=O)NCC(=O)N[C@@H](CC(N)=O)C(=O)N[C@@H](CC(N)=O)C(=O)N[C@@H](Cc1ccccc1)C(=O)N[C@@H](CCC(N)=O)C(=O)N[C@@H](Cc1cnc[nH]1)C(=O)NCC(=O)N[C@@H](CO)C(=O)N[C@@H](CC(N)=O)C(=O)O)[C@@H](C)O [LGGDNYGTFSGSNGNNFQHGSN] was tested, and the MIC [24] was 2.78 µM (≈ 6.25 µg/mL), the MIC [25] was 1.39 µM (≈ 3.13 µg/mL) and the MIC [26] was 22.3 µM (≈ 50 µg/mL). For the same compound, the MIC [27] was no less than 44.6 µM, the MIC [28] was no less than 44.6 µM and the MIC [29] was no less than 44.6 µM.
Compound CC[C@H](C)[C@H](NC(=O)[C@H](CCCN=C(N)N)NC(=O)CNC(=O)[C@@H](NC(=O)[C@@H]1CCCN1C(=O)[C@H](Cc1ccccc1)NC(=O)[C@H](CCC(N)=O)NC(=O)[C@H](CC(C)C)NC(=O)CNC(=O)[C@H](C)NC(=O)[C@H](CCCN=C(N)N)NC(=O)[C@H](C)NC(=O)[C@H](CO)NC(=O)[C@@H](N)CCCN=C(N)N)C(C)C)C(=O)N[C@@H](Cc1cnc[nH]1)C(=O)N[C@@H](CCCN=C(N)N)C(=O)N[C@@H](Cc1cnc[nH]1)C(=O)N[C@@H](CC(C)C)C(=O)N[C@@H](CCCCN)C(=O)O [RSARAGLQFPVGRIHRHLK] has an MIC [30] of 4.24 µM (≈ 9.33 µg/mL), an MIC [31] of no less than 48 µM and an MIC [32] of no less than 48 µM. The MIC [33] was no less than 48 µM, the MIC [34] was 2.12 µM (≈ 4.67 µg/mL) and the MIC [35] was 4.24 µM (≈ 9.33 µg/mL). The MIC [36] was 17 µM (≈ 37.3 µg/mL), the MIC [37] was no less than 48 µM and the MIC [38] was 4.24 µM (≈ 9.33 µg/mL). It also gave an MIC [39] of 2.12 µM (≈ 4.67 µg/mL), an MIC [40] of no less than 48 µM and an MIC [41] of 4.24 µM (≈ 9.33 µg/mL). For the same compound, the MIC [42] was 4.24 µM (≈ 9.33 µg/mL), the MIC [43] was no less than 48 µM and the MIC [44] was no less than 48 µM. The MIC [45] was 4.24 µM (≈ 9.33 µg/mL) and the MIC [46] was 4.24 µM (≈ 9.33 µg/mL).
For C[C@@H](O)[C@H](N)C(=O)N[C@@H](CCCCN)C(=O)N1CCC[C@H]1C(=O)N[C@@H](CCCCN)C(=O)NCC(=O)N[C@H](C(=O)N[C@@H](CCCCN)C(=O)N1CCC[C@H]1C(=O)N[C@@H](CCCCN)C(=O)NCC(=O)N[C@H](C(=O)N[C@@H](CCCCN)C(=O)N1CCC[C@H]1C(=O)N[C@@H](CCCCN)C(=O)NCC(=O)N[C@H](C(=O)N[C@@H](CCCCN)C(=O)N1CCC[C@H]1C(=O)N[C@@H](CCCCN)C(=O)NCC(N)=O)[C@@H](C)O)[C@@H](C)O)[C@@H](C)O [TKPKGTKPKGTKPKGTKPKG], the MIC [47] was no less than 300 µM and the MIC [48] was no less than 300 µM.
